Experimental data published in patent publication US20050234065A1, “Dipeptidyl peptidase-IV inhibitors” (Pfizer Inc, priority 2004, published 2005).

target: T1, DPP-IV (Homo sapiens, UniProt P27487); assay: In vitro assay for dipeptidyl peptidase inhibition; format: biochemical; conditions: hydrochloride salts; Gly-Pro-4-methoxy B naphthylamide substrate; overnight at 37° C.; read-out: IC50 (concentration of test compound required for 50% inhibition)
T1 construct: purchased Enzyme Systems Products SPE-01
Protocol: 150 μL of an enzyme-substrate solution was pipetted into microtiter wells of a polystyrene 96-well plate, and maintained at 4° C. The enzyme-substrate solution comprised 50 μM Gly-Pro-4-methoxy B naphthylamide HCl in 50 mM Tris assay buffer pH 7.3 containing 0.1M sodium chloride, 0.1% (v/v) Triton and 50 μU/mL DPP-IV (Enzyme Systems Products Cat#SPE-01, DPP-IV 5 mU/mL stock). 5 μL/well of compounds of Formula (I) were added, bringing the final compound of Formula (I) concentrations to 3 μM-10 nM per well.
Controls. Enzyme was omitted from four (4) wells, as a reagent blank. 5 μL of 3 mM Diprotin A was added to four wells as a positive quality control, providing a final Diprotin A concentration of 100 μM. To measure total enzyme activity (i.e. a negative control), without the influence of any compounds of Formula (I), 5 μL of distilled water was added to four wells.
The entire assay was incubated overnight (about 14-18 hours) at 37° C.

T1 sequence (P27487 whole entry, species assumed): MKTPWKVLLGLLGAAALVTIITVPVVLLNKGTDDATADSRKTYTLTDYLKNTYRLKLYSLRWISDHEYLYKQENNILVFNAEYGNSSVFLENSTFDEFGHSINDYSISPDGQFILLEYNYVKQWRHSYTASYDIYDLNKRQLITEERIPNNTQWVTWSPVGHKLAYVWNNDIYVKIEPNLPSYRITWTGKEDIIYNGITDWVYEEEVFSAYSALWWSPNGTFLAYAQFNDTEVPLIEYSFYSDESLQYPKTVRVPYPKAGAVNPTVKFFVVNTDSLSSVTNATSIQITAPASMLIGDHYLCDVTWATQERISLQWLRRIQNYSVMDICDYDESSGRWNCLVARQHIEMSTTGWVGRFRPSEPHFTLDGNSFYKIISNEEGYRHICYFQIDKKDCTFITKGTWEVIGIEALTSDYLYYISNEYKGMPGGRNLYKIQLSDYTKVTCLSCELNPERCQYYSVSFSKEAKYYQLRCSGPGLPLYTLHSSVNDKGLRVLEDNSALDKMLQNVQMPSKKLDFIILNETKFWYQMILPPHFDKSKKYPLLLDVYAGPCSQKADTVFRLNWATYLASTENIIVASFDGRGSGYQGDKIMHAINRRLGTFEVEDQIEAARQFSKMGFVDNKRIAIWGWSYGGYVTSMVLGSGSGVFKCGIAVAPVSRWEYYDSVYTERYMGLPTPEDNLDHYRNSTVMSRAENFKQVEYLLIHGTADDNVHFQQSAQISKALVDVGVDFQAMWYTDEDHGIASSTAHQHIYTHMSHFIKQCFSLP

Row | Compound | IC50
1 | Nc1ncccc1C(=O)N[C@H]1CC[C@H]([C@H](N)C(=O)N2CCSC2)CC1 [Example 39, (S)-2-amino-N-[trans-4-(1-amino-2-oxo-2-thiazolidin-3-yl-ethyl)-cyclohexyl]-nicotinamide] | ≤ 100 nM
2 | N[C@H](C(=O)N1CCCC1)[C@H]1CC[C@H](N2Cc3sccc3C2=O)CC1 [Example 41, 5-[trans-4-((1S)-1-amino-2-oxo-2-pyrrolidin-1-yl-ethyl)-cyclohexyl]-5,6-dihydro-thieno[2,3-c]pyrrol-4-one] | ≤ 100 nM
3 | N[C@H](C(=O)N1CCCC1)[C@H]1CC[C@H](N2Cc3ncccc3C2=O)CC1 [Example 42, 6-[trans-4-((1S)-1-amino-2-oxo-2-pyrrolidin-1-yl-ethyl)-cyclohexyl]-6,7-dihydro-pyrrolo[3,4-b]pyridin-5-one] | ≤ 100 nM
4 | N[C@H](C(=O)N1CCSC1)[C@H]1CC[C@H](N2Cc3ncccc3C2=O)CC1 [Example 43, 6-[trans-4-((1S)-1-amino-2-oxo-2-thiazolidin-3-yl-ethyl)-cyclohexyl]-6,7-dihydro-pyrrolo[3,4-b]pyridin-5-one] | ≤ 100 nM
5 | N#C[C@@H]1CCCN1C(=O)[C@@H](N)[C@H]1CC[C@H](N2Cc3ncccc3C2=O)CC1 [Example 44, 1-{(1S)-amino-[trans-4-(5-oxo-5,7-dihydro-pyrrolo[3,4-b]pyridin-6-yl)-cyclohexyl]-acetyl)-(2S)-pyrrolidine-2-carbonitrile] | ≤ 100 nM
6 | N[C@H](C(=O)N1CCC(F)(F)C1)[C@H]1CC[C@H](N2Cc3ncccc3C2=O)CC1 [Example 45, 6-{trans-4-[(1S)-1-amino-2-(3,3-difluoro-pyrrolidin-1-yl)-2-oxo-ethyl]-cyclohexyl}-6,7-dihydro-pyrrolo[3,4-b]pyridin-5-one] | ≤ 100 nM
7 | N[C@H](C(=O)N1CCCC1)[C@H]1CC[C@H](N2Cc3nccnc3C2=O)CC1 [Example 46, 6-[trans-4-((1S)-1-amino-2-oxo-2-pyrrolidin-1-yl-ethyl)-cyclohexyl]-6,7-dihydro-pyrrolo[3,4-b]pyrazin-5-one] | ≤ 100 nM
8 | N#C[C@@H]1CCCN1C(=O)[C@@H](N)[C@H]1CC[C@H](NC(=O)c2cc3cccn3cn2)CC1 [Example 47, pyrrolo[1,2-c]pyrimidine-3-carboxylic acid {trans-4-[(1S)-1-Amino-2-((2S)-2-cyano-pyrrolidin-1-yl)-2-oxo-ethyl]-cyclohexyl}-amide] | ≤ 100 nM
9 | Cc1nn(C)c(C(=O)N[C@H]2CC[C@H]([C@H](N)C(=O)N3CCCC3)CC2)c1N [Example 48, (S)-4-amino-2,5-dimethyl-2H-pyrazole-3-carboxylic acid [trans-4-(1-amino-2-oxo-2-pyrrolidin-1-yl-ethyl)-cyclohexyl]-amide] | ≤ 100 nM
10 | Nc1nccnc1C(=O)N[C@H]1CC[C@H]([C@H](N)C(=O)N2CC[S+]([O-])C2)CC1 (stereo partly drawn) [Example 49, 3-amino-pyrazine-2-carboxylic acid {trans-4-[(1S)-1-amino-2-oxo-2-(1-oxo-1×4-thiazolidin-3-yl)-ethyl]-cyclohexyl}-amide] | 100 to 500 nM
11 | N[C@H](C(=O)N1CCCC1)[C@H]1CC[C@H](N2Cc3ccccc3S2(=O)=O)CC1 [Example 50, (2S)-2-amino-2-[trans-4-(1,1-dioxo-1,3-dihydro-1λ^6-benzo[d]isothiazol-2-yl)-cyclohexyl]-1-pyrrolidin-1-yl-ethanone] | ≤ 100 nM
12 | N[C@H](C(=O)N1CCSC1)[C@H]1CC[C@H](N2Cc3ccccc3S2(=O)=O)CC1 [Example 51, (2S)-2-amino-2-[trans-4-(1,1-dioxo-1,3-dihydro-1λ^6-benzo[d]isothiazol-2-yl)-cyclohexyl]-1-thiazolidin-3-yl-ethanone] | ≤ 100 nM
13 | N[C@H](C(=O)N1CC[C@@H](F)C1)[C@H]1CC[C@H](NC(=O)c2cccc(O)n2)CC1 [Example 52, 6-hydroxy-pyridine-2-carboxylic acid {trans-4-[(1S)-1-amino-2-((3R)-3-fluoro-pyrrolidin-1-yl)-2-oxo-ethyl]-cyclohexyl}-amide] | ≤ 100 nM
